Tested on: not listed separately
Experiment: FARMA: permeation of analytes into FAR-loaded liposomes (fluorescence, cuvette or stopped-flow)
Settings: FARMA with FAR-loaded liposomes or GUVs
From the text: Elementary physical parameters, such as permeability coefficients, can be extracted from the full kinetic FARMA data. This kinetic profile → parameter mapping requires some assumptions to be made in regard to the permeation mechanism. We applied a reported permeation model for liposomes[31] to arrive at permeation rate constants (kp) and apparent permeability coefficients (Papp). The derivation of the mathematical relation (1), linking the fundamental permeability rate constant and permeability coefficient to experimental measurable kobs rate constants, the known total analyte and total FAR concentration, and the experimentally determined liposome radius (r), is shown in the Supplementary Information.1 Papp=kp⋅r/3=kobs/canalyte⋅cFAR⋅r/3 […]
The volume-to-surface correction factor r/3 accounts for the fact that the observed rates depend on the size, i.e., radius r, of the liposomal assembly. […] The initial-rate method can also be applied, see the Supplementary Information. Moreover, kobs/canalyte can be estimated by single-point measurements at selected canalyte concentration.
A solution of 2.5 mg/mL of POPC and 0.33 mg/mL of POPS in chloroform was purged with nitrogen and dried overnight under […] vacuum. […] The resulting FAR-loaded liposomes were separated from non-encapsulated species by size-exclusion chromatography (NAP-25 column), while maintaining the same buffer. The absence of non-encapsulated FAR was confirmed by adding a non-membrane-permeable species such as tryptophan to a fluorescence cuvette containing 25 µL of liposomes diluted in 1 mL HEPES (10 mM) buffer. Complete removal of non-encapsulated FAR is indicated by the absence of a significant fluorescence change upon Trp addition.
In a typical experiment, 20 µL of liposome solution loaded with FAR was diluted in 1 mL HEPES buffer (10 mM, pH 7.0) in a 1 mL quartz cuvette. An emission spectrum was recorded after 10 min of “equilibration time” on a Varian Eclipse spectrofluorometer thermostated at 22 °C with a water bath using λexc = 400 nm for FAR-1, λexc = 310 nm for FAR-2, and λexc = 330 nm for FAR-3. In the time-resolved experiments, the emission intensity at λobs = 450 nm for FAR-1, λobs = 370 nm for FAR-2, and λobs = 370 and 500 nm for FAR-3 (the latter is the emerging excimer band for certain FAR-3•analyte complexes) was recorded with an averaging time of 0.5 s. […] For single-point experiments, a full spectrum was recorded after a fixed time or several time intervals after analyte addition. […] Only FAR-analyte combinations were used for FARMA, for which no significant autofluorescence and competitive light absorption of the analyte occurred.
For each experiment, measurements from 6 injections were accumulated and the average of these traces was used for data analysis.
Calculation of the unimolecular permeation rate constants ( kp) and of the apparent permeability coefficients (Papp).
The passive diffusion (permeation) of small non-charged compounds follows a modified Fick’s law and can be expressed by a first order kinetics.1 Similar to first order chemical reactions, the kinetics curve can therefore be fitted monoexponentially to obtained the observed permeation rates (kobs). In our assay set-up, such an exponential fit is an approximation, since it neglects that a certain fraction of transported analyte is bound to the FAR and cannot exit the liposome. Nevertheless, the fit of the kinetic curves of the […]
approximation is justified.

SMILES	membrane permeability (in words)
Oc1ccccc1O [1,2-dihydroxybenzene]	“instantaneously” permeating
O=P(O)(O)Oc1ccc2ccccc2c1 [2-naphthyl phosphate]	membrane-impermeable
COC(=O)[C@@H](N)Cc1c[nH]c2ccccc12 [TrpOMe, tryptophan methyl ester]	rather quickly permeating
CNC[C@H](O)c1ccc(O)c(O)c1 [adrenaline]	very slowly permeating
NCCc1ccc(O)c(O)c1 [dopamine]	very slowly permeating
c1ccc2ccccc2c1 [naphthalene]	permeating
OC[C@H]1O[C@@H](Oc2ccccc2)[C@H](O)[C@@H](O)[C@H]1O [phenyl-β-D-galactopyranoside]	slowly permeating

Same assay, conditions: monoexponential fit; analyte 40 µM (bulk), FAR-2 ca. 500 µM in the liposome interior; 20% error

SMILES	kobs [s–1]
Cc1ccccc1O [2Me-phenol, 2-methylphenol]	0.33
Nc1ccc(Br)cc1 [4Br-aniline, 4-bromoaniline]	4.0
N#Cc1ccc(N)cc1 [4CN-aniline, 4-cyanoaniline]	6.5
Nc1ccc(Cl)cc1 [4Cl-aniline, 4-chloroaniline]	4.0
Oc1ccc(Cl)cc1 [4Cl-phenol, 4-chlorophenol]	2.2
CCc1ccc(O)cc1 [4Et-phenol, 4-ethylphenol]	0.24
Nc1ccc(F)cc1 [4F-aniline]	4.4
Oc1ccc(F)cc1 [4F-phenol]	2.8
Nc1ccc(I)cc1 [4I-aniline]	3.1
Oc1ccc(I)cc1 [4I-phenol, 4-iodophenol]	0.69
O=[N+]([O-])c1ccc(O)cc1 [4NO2-phenol]	38
CN(C)c1ccc(C#N)cc1 [DMABN, 4-(N,N-dimethylamino) benzonitrile]	0.68
O=C1CCC(=O)N1c1ccccc1 [N-phenylsuccinimide]	1.1
c1ccc2[nH]cnc2c1 [benzimidazole]	2.7
c1ccc2[nH]ncc2c1 [indazole]	2.4
Nc1c(F)c(F)c(F)c(F)c1F [pentafluoroaniline]	0.51
NCCc1ccccc1 [phenethylamine]	0.22
CCC(=O)Nc1ccc(Cl)c(Cl)c1 [propanil]	42

Same assay, conditions: slow response, without enzyme

SMILES	time of FARMA signal response (t) [min]
OC[C@H]1O[C@@H](Oc2ccccc2)[C@H](O)[C@@H](O)[C@H]1O [phenyl-β-D-galactopyranoside]	> 5

Same assay, conditions: source data of Fig. 5

SMILES	kobs	log(kobs)
Cc1ccccc1O [2Me-phenol, 2-methylphenol]	0.33	-0.4815
Nc1ccc(Br)cc1 [4Br-aniline, 4-bromoaniline]	4	0.6021
N#Cc1ccc(N)cc1 [4CN-aniline, 4-cyanoaniline]	6.5	0.8129
Nc1ccc(Cl)cc1 [4Cl-aniline, 4-chloroaniline]	4	0.6021
Oc1ccc(Cl)cc1 [4Cl-phenol, 4-chlorophenol]	2.2	0.3424
CCc1ccc(O)cc1 [4Et-phenol, 4-ethylphenol]	0.24	-0.6198
Nc1ccc(F)cc1 [4F-aniline]	4.4	0.6434
Oc1ccc(F)cc1 [4F-phenol]	2.8	0.4472
Nc1ccc(I)cc1 [4I-aniline]	3.1	0.4914
Oc1ccc(I)cc1 [4I-phenol, 4-iodophenol]	0.69	-0.1611
O=[N+]([O-])c1ccc(O)cc1 [4NO2-phenol]	38	1.58
CN(C)c1ccc(C#N)cc1 [DMABN, 4-(N,N-dimethylamino) benzonitrile]	0.68	-0.1675
O=C1CCC(=O)N1c1ccccc1 [N-phenylsuccinimide]	1.1	0.04139
c1ccc2[nH]cnc2c1 [benzimidazole]	2.7	0.4314
c1ccc2[nH]ncc2c1 [indazole]	2.4	0.3802
Nc1c(F)c(F)c(F)c(F)c1F [pentafluoroaniline]	0.51	-0.2924
NCCc1ccccc1 [phenethylamine]	0.22	-0.6576
CCC(=O)Nc1ccc(Cl)c(Cl)c1 [propanil]	42	1.623

Tested on: FAR-1
Experiment: Fluorescence titration, FAR•analyte complex formation in homogeneous solution
Format: binding
Settings: FAR-1; 10 mM HEPES buffer (pH 7); 1:1 binding model; error estimate ≤ 20%
Procedure: Fluorescence titrations were carried out in aqueous HEPES buffer (10 mM, pH 7, 22 °C) unless stated otherwise. To a solution of the FAR (typically at 10–30 μM) was stepwise added a solution of the analyte (typically up to 2 mM) and the fluorescence spectra were recorded. The normalized emissions at 450 nm (FAR-1) or at 370 nm (FAR-2) were fitted with an equation for a 1 : 1 binding by a least-square fit. The resulting affinity constants are reported in Supplementary Table 1. Representative titration plots are shown in Supplementary Fig. 1. Note that the high CB8-dye binding affinities correspond to a near quantitative degree of host-dye complexation, i.e., quantitative formation of the FAR, such that the subsequent binding of the analyte can be treated independently.

SMILES	Ka
Oc1ccccc1O [1,2-dihydroxybenzene]	20 10^3 M−1
O=C1C=CC(=O)C=C1 [1,4-benzoquinone]	0.5 10^3 M−1
O=C(O)C(=O)Cc1ccc(O)cc1 [4-hydroxyphenylpyruvic acid]	17 10^3 M−1
CCc1ccc(O)cc1 [4Et-phenol, 4-ethylphenol]	1.2 10^3 M−1
N[C@@H](Cc1c[nH]c2ccc(O)cc12)C(=O)O [5HO-Trp, 5-hydroxy tryptophan]	7.7 10^3 M−1
O=C1CCC(=O)N1c1ccccc1 [N-phenylsuccinimide]	30 10^3 M−1
CC(=O)NC(Cc1c[nH]c2ccccc12)C(=O)O (centres unmarked) [NAc-Trp]	50 10^3 M−1
COC(=O)[C@@H](N)Cc1c[nH]c2ccccc12 [TrpOMe, tryptophan methyl ester]	14 10^3 M−1
CNC[C@H](O)c1ccc(O)c(O)c1 [adrenaline]	< 1 10^3 M−1
c1ccccc1 [benzene]	4 10^3 M−1
c1ccc2[nH]cnc2c1 [benzimidazole]	7.5 10^3 M−1
CC(C)(O/N=C(\C(=O)N[C@@H]1C(=O)N2C(C(=O)[O-])=C(C[n+]3ccccc3)CS[C@H]12)c1csc(N)n1)C(=O)O [ceftazidime, reference compound]	< 1 10^3 M−1
O=C(N[C@H](CO)[C@H](O)c1ccc([N+](=O)[O-])cc1)C(Cl)Cl [chloramphenicol, reference compound]	< 1 10^3 M−1
NCCc1ccc(O)c(O)c1 [dopamine]	0.10 10^3 M−1
c1ccc2ccccc2c1 [naphthalene]	> 50 10^3 M−1
COc1ccc2cc([C@H](C)C(=O)O)ccc2c1 [naproxen, reference compound]	2 10^3 M−1
CC(=O)Nc1ccc(O)cc1 [paracetamol, reference compound]	7 10^3 M−1
NCCc1ccccc1 [phenethylamine]	8 10^3 M−1
OC[C@H]1O[C@@H](Oc2ccccc2)[C@H](O)[C@@H](O)[C@H]1O [phenyl-β-D-galactopyranoside]	30 10^3 M−1
CCCN(CCOc1c(Cl)cc(Cl)cc1Cl)C(=O)n1ccnc1 [prochloraz]	2.8 10^3 M−1
CCC(=O)Nc1ccc(Cl)c(Cl)c1 [propanil]	8 10^3 M−1
c1ccc2ncccc2c1 [quinoline]	2.2 10^3 M−1
C=C(C)[C@H]1Cc2c(ccc3c2O[C@@H]2COc4cc(OC)c(OC)cc4[C@@H]2C3=O)O1 [rotenone]	4.8 10^3 M−1

Same assay, conditions: pH 7

SMILES	Ka
O=C(O)Cc1cc(O)ccc1O [homogentisic acid]	0.14

— paper PMC7363885, “Fluorescent artificial receptor-based membrane assay (FARMA) for spatiotemporally resolved monitoring of biomembrane permeability” (Communications Biology, 2020)
